This note sets out measurements from PubChem BioAssay (NCI).

Among the test systems are K-562 leukemia; SF-268 CNS; HCC-2998 colon; OVCAR-4 ovarian; DU-145 prostate; MDA-N; UACC-62 melanoma; M14 melanoma; MALME-3M melanoma; HL-60(TB) leukemia; NCI/ADR-RES ovarian.
What all share (assay): NCI tumour cell line growth inhibition, 48 h

Each structure is given as a SMILES string. Where “and” joins values, the source holds several entries; their conditions need not be identical. Equal values may be shown once.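 Briefly, cells in 96-well plates were exposed to five compound concentrations for 48 h, and endpoints were estimated by linear interpolation. GI50 = concentration required for 50% inhibition of growth. TGI is the concentration that stops growth completely.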 A value given as a limit tells only on which side of the number the result lay.

As to `CC(C)N(CC(=O)O)CC(=O)O`, the TGI in the test with K-562 leukemia, in the test with SF-268 CNS, with HCC-2998 colon, with OVCAR-4 ovarian, in the test on DU-145 prostate and with MDA-N was above 100 µM each time. The TGI with UACC-62 melanoma, in the test with M14 melanoma, in the test with MALME-3M melanoma, with HL-60(TB) leukemia and in the test on NCI/ADR-RES ovarian was above 100 µM in each case.

For `O=C1c2cc3c(cc2[C@@H]2C(O)[C@H]4O[C@H]4C4CCN1C42)OCO3` (stereo partly drawn), the TGI in the test with K-562 leukemia, in the test on SF-268 CNS, in the test on HCC-2998 colon, in the test on OVCAR-4 ovarian, in the test on UACC-62 melanoma and in the test with M14 melanoma was above 37.5 µM in each case. Moreover, the TGI in the test with MALME-3M melanoma and in the test with HL-60(TB) leukemia was above 37.5 µM throughout.

Take `C[C@@]12CC[C@@H](O)C[C@@H]1CC[C@H]1[C@H]2CC[C@@]2(C)[C@H](c3ccc(=O)oc3)CC[C@@]12O`: the GI50 with K-562 leukemia is below 10 nM; with SF-268 CNS, below 10 nM; in the test on HCC-2998 colon, 12.4 nM; in the test with OVCAR-4 ovarian, below 12.4 nM; in the test with DU-145 prostate it was below 10 nM; with UACC-62 melanoma it was below 13.5 nM. The GI50 in the test with M14 melanoma, in the test on MALME-3M melanoma and in the test with NCI/ADR-RES ovarian was below 10 nM each time. For the same compound, the TGI with K-562 leukemia came out at 0.0309 µM; in the test on SF-268 CNS, 0.0344 µM; with HCC-2998 colon, 0.142 µM; with OVCAR-4 ovarian, 0.0639 µM; in the test with DU-145 prostate, 0.0168 µM; in the test with UACC-62 melanoma, 0.0435 µM. Moreover, the figures for the TGI in the test with M14 melanoma, with MALME-3M melanoma and in the test with NCI/ADR-RES ovarian were 0.0564 µM, 0.0174 µM and 0.0285 µM, respectively.

With `O=C(c1ccccc1)c1ccc(N2C(=O)/C(=C/c3cccc(Oc4ccccc4)c3)N=C2c2ccccc2)c(N2C(=O)/C(=C/c3cccc(Oc4ccccc4)c3)N=C2c2ccccc2)c1`, the TGI was above 100 µM in the test on K-562 leukemia; above 100 µM with SF-268 CNS; 48.8 µM in the test with HCC-2998 colon; above 100 µM with OVCAR-4 ovarian; above 100 µM with DU-145 prostate; 69 µM in the test on MDA-N. Besides, the TGI was 24.5 µM in the test with UACC-62 melanoma; above 100 µM with M14 melanoma; above 100 µM in the test with MALME-3M melanoma; 35.9 µM in the test with HL-60(TB) leukemia; 69.1 µM in the test with NCI/ADR-RES ovarian.

As for `CCOC(=O)C(C(=O)OCC)c1cc(-c2cc3ccccc3o2)oc(=O)c1C#N`, the TGI with K-562 leukemia was above 100 µM; in the test on SF-268 CNS it was above 100 µM; in the test with HCC-2998 colon, 46.9 µM; in the test on OVCAR-4 ovarian, 71.4 µM; in the test on M14 melanoma it was 36.9 µM; with MALME-3M melanoma it was 55.7 µM. Also, the TGI in the test with HL-60(TB) leukemia worked out at 64.8 µM.

Consider `NC1=NC(c2ccc(Cl)cc2)=CC(c2cccc(Cl)c2)S1` (stereo not drawn), for which the TGI is above 100 µM in the test with K-562 leukemia; above 100 µM in the test on SF-268 CNS; 80.9 µM in the test with HCC-2998 colon; 60.5 µM in the test on OVCAR-4 ovarian; above 100 µM in the test on DU-145 prostate; 52.9 µM in the test on MDA-N. Further, the TGI in the test with UACC-62 melanoma is 51.4 µM; in the test on M14 melanoma it was above 100 µM; in the test on MALME-3M melanoma, above 100 µM; in the test on HL-60(TB) leukemia, above 100 µM; in the test with NCI/ADR-RES ovarian, above 100 µM.

For the compound `CC(C)=CCC/C(C)=C/Cc1c2c(c3oc(-c4ccc(O)c(O)c4)c(O)c(=O)c3c1O)C=CC(C)(C)O2`, the TGI turned out to be 9.63 µM with K-562 leukemia; 10.7 µM in the test on SF-268 CNS; 9.5 µM with OVCAR-4 ovarian; 8.59 µM in the test on DU-145 prostate; 11.4 µM in the test on MDA-N; 12.4 µM in the test with UACC-62 melanoma. The TGI with M14 melanoma worked out at 9.42 µM; in the test with MALME-3M melanoma, 4.01 µM; with HL-60(TB) leukemia, 6.29 µM; in the test on NCI/ADR-RES ovarian, 11.7 µM.

Regarding `COc1ccc2c(O)c1-c1c(OC)ccc(c1O)SSc1ccc(OC)c(c1O)-c1c(OC)ccc(c1O)SS2`, the TGI with K-562 leukemia is 97.1 µM; with SF-268 CNS it was above 100 µM; with OVCAR-4 ovarian, 69.8 µM; in the test with DU-145 prostate, above 100 µM; in the test on MDA-N, above 100 µM; in the test on M14 melanoma it was above 100 µM. Further, the TGI in the test with MALME-3M melanoma and with HL-60(TB) leukemia was above 100 µM throughout.

Turning to `CN(C)CCC(=O)[C@@]1(O)CC[C@H]2[C@@H]3CC=C4C[C@@H](O)CC[C@]4(C)[C@H]3CC[C@@]21C`, the TGI is 48.9 µM with K-562 leukemia; 32.2 µM with SF-268 CNS; 60 µM in the test with HCC-2998 colon; above 78.2 µM in the test with OVCAR-4 ovarian; 19.9 µM with DU-145 prostate; 34.5 µM in the test with MDA-N. For the same compound, the TGI worked out at 32.2 µM with UACC-62 melanoma; 34.2 µM in the test on M14 melanoma; 28.8 µM with MALME-3M melanoma; 37.7 µM in the test with HL-60(TB) leukemia; 72.1 µM with NCI/ADR-RES ovarian.

For the compound `COc1cc2cc(C(=O)N3CC(CCl)c4ccc(NO)cc43)[nH]c2c(OC)c1OC` (stereo not drawn), the TGI was 0.965 µM in the test with K-562 leukemia; 0.749 µM in the test on SF-268 CNS; 1.07 µM in the test with HCC-2998 colon; 0.774 µM with OVCAR-4 ovarian; above 31 µM with DU-145 prostate; 0.727 µM with MDA-N. Further, the TGI in the test with UACC-62 melanoma was found to be 0.372 µM; in the test on M14 melanoma it was 0.768 µM; with MALME-3M melanoma it was 0.317 µM; in the test with HL-60(TB) leukemia, 0.403 µM; in the test with NCI/ADR-RES ovarian, 0.48 µM.

For the compound `Cc1ccc(C(=O)NC2C(=O)NC(C(C)C)C(=O)N3CCCC3C(=O)N(C)CC(=O)N(C)C(C(C)C)C(=O)OC2C)c2c1Oc1c(c(C(=O)NC3C(=O)NC(C(C)C)C(=O)N4CCCC4C(=O)N(C)CC(=O)N(C)C(C(C)C)C(=O)OC3C)c3nc(-c4ccccc4)c(=O)oc3c1C)N2` (stereo not drawn), the TGI was 0.00428 µM with HCC-2998 colon; 0.0236 µM with MDA-N; 0.195 µM and 0.0239 µM in the test on MALME-3M melanoma; 0.557 µM in the test on HL-60(TB) leukemia; 2.59 µM and 2.37 µM in the test on NCI/ADR-RES ovarian. The GI50 in the test with NCI/ADR-RES ovarian was 85.6 nM.

With `CCCCC(CC)C(=O)Oc1ccc(C(=O)c2ccccc2)c(O)c1` (stereo not drawn), the TGI in the test with K-562 leukemia, in the test on SF-268 CNS, in the test on HCC-2998 colon, in the test with OVCAR-4 ovarian, with DU-145 prostate and in the test on MDA-N was above 100 µM each time. Further, the TGI in the test with UACC-62 melanoma, in the test on M14 melanoma, in the test on MALME-3M melanoma, in the test with HL-60(TB) leukemia and in the test on NCI/ADR-RES ovarian was above 100 µM in each case.
